Laboratory results as given in patent US5192507A (priority 1991, dated 1993).
“And” between values parts separate entries of the source, which are not always exact repeats. Identical values can stand only once.

Legend:
opiate receptor (OpR) = format: binding, rat
[1] = system: acetylcholine receptor (AChR); format: binding, Electrophorus electricus
[2] = system: acetylcholine receptor (AChR); format: binding, Electrophorus electricus; remark: listed apart in the source

`CN1CC[C@]23CCCC[C@H]2[C@H]1Cc1ccc(O)cc13` [Levorphanol] was tested, and the “Δ% (difference between resistance changes of test and control chips)” value (opiate receptor (OpR)) was 10% and the “ΔK.OMEGA. (change in resistance across the biosensor circuit)” value (opiate receptor (OpR)) was -160.

For `CCCCCCCC[N+](C)(C)CCCS(=O)(=O)[O-]` [Zwittergent ™ 3-08], the “% Activity Increase (AChR membrane activity)” value [1] was 55%.

With `CCCCCCCCCC[N+](C)(C)CCCS(=O)(=O)[O-]` [Zwittergent ™ 3-10] the “% Activity Increase (AChR membrane activity)” value [1] was 13%.

With Triton ™ X-100 the “increase in retention of binding activity of AChR” value [1] was “more than 90%”.

For `OC[C@H]1OC(O)[C@H](O)[C@@H](O)[C@@H]1O` (stereo partly shown) [Glucose], the “% Change with respect to control sensor” value [2] was 3% and 0% and 6% and 5% and the “change in resistance between control and AChR sensors (in words)” value [2] was “no change”.
